Converted amounts (≈) assume the structure as drawn. One block for each compound: values may come before it. The source made the active and inactive calls. The calls are words filed in the database; no cut-off is given here.
Columns and labels:
[1] = system: Human immunodeficiency virus 1; test: In vitro inhibition of HIV-1 (RF strain) using cell-free inactivation assay at concentration of 0.032 mg/mL; type: functional, organism-based
[2] = system: Human immunodeficiency virus 1; test: In vitro inhibition of HIV-1 (RF strain) using cell-free inactivation assay at concentration of 3.2 mg/mL; type: functional, organism-based
[3] = system: Human immunodeficiency virus 1; test: In vitro inhibition of HIV-1 (RF strain) using cell-free inactivation assay at concentration of 0.1 mg/mL; type: functional, organism-based
Candida albicans = test: Minimum inhibitory concentration required for growth inhibition of Candida albicans; type: functional
[4] = system: Human immunodeficiency virus 1; test: In vitro inhibition of HIV-1 (RF strain) using cell-free inactivation assay at concentration of 10 mg/mL; type: functional, organism-based
[5] = system: Human immunodeficiency virus 1; test: In vitro inhibition of HIV-1 (RF strain) using cell-free inactivation assay at concentration of 1.0 mg/mL; type: functional, organism-based
[6] = system: Human immunodeficiency virus 1; test: In vitro inhibition of HIV-1 (RF strain) using cell-free inactivation assay at concentration of 0.32 mg/mL; type: functional, organism-based
Homo sapiens [7] = organism: Homo sapiens; test: In vitro spermicidal activity using spermicidal dilution at 134.4 +/- 14.2 mg/mL in the Sander-Cramer test; type: functional; conditions: read-out: MEC
Homo sapiens [8] = organism: Homo sapiens; test: In vitro spermicidal activity using spermicidal dilution at 27.2 +/- 2.3 mg/mL in the Sander-Cramer test; type: functional; conditions: read-out: MEC
Homo sapiens [9] = organism: Homo sapiens; test: In vitro spermicidal activity using spermicidal dilution at 102.4 +/- 13.5 mg/mL in the Sander-Cramer test; type: functional; conditions: read-out: MEC
Homo sapiens [10] = organism: Homo sapiens; test: In vitro spermicidal activity using spermicidal dilution at 48.0 +/-5.1 mg/mL in the Sander-Cramer test; type: functional; conditions: read-out: MEC
[11] = system: Human immunodeficiency virus 1; test: In vitro inhibition of HIV-1 (RF strain) using cell-free inactivation assay at concentration of 0.032 mg/mL; NA: Not active; type: functional, organism-based
Homo sapiens [12] = organism: Homo sapiens; test: In vitro spermicidal activity using spermicidal dilution at 7.6 +/- 0.4 mg/mL in the Sander-Cramer test; type: functional; conditions: read-out: MEC
[13] = system: Human immunodeficiency virus 1; test: In vitro inhibition of HIV-1 (RF strain) using cell-free inactivation assay at concentration of 0.1 mg/mL; NA: Not active; type: functional, organism-based
Homo sapiens [14] = organism: Homo sapiens; test: In vitro spermicidal activity using spermicidal dilution at 4.8 +/- 0.5 mg/mL in the Sander-Cramer test; type: functional; conditions: read-out: MEC

MIC (Candida albicans): 2 µg/mL (≈ 5 µM)
Structure (SMILES): CCCCCCCCCCCCCCC[C@@]1(O)C[N+](C)(C)C[C@@H](CC(=O)[O-])O1 [HEMIACYLCARNITINIUM]
Activity [1]: 0.3
Activity [2]: 3.8
Activity [3]: 1.5
Activity [4]: > 4
Activity [5]: 3.2
Activity [6]: 2.7
minimal effective concentration (Homo sapiens [7]): 109 µg/mL

MIC (Candida albicans): 80 µg/mL (≈ 224 µM)
Structure (SMILES): CCCCCCCCCCCC[C@@]1(O)C[N+](C)(C)C[C@@H](CC(=O)[O-])O1
Activity [1]: 0
Activity [2]: > 3.5
Activity [3]: 0.3
Activity [4]: > 4
minimal effective concentration (Homo sapiens [8]): 407 µg/mL
Activity [5]: 2.8
Activity [6]: 2

MIC (Candida albicans): 10 µg/mL (≈ 25.9 µM)
Structure (SMILES): CCCCCCCCCCCCCC[C@@]1(O)C[N+](C)(C)C[C@@H](CC(=O)[O-])O1
Activity [1]: 0.5
minimal effective concentration (Homo sapiens [9]): 121 µg/mL
Activity [2]: > 4
Activity [3]: 1.5
Activity [4]: > 4
Activity [5]: 3.5
Activity [6]: 2.8

MIC (Candida albicans): 40 µg/mL (≈ 108 µM)
Structure (SMILES): CCCCCCCCCCCCC[C@@]1(O)C[N+](C)(C)C[C@@H](CC(=O)[O-])O1
Activity [1]: 0.5
Activity [2]: 3.5
Activity [3]: 1.5
Activity [4]: 3.5
Activity [5]: 3.3
Activity [6]: 2.7
minimal effective concentration (Homo sapiens [10]): 235 µg/mL

MIC (Candida albicans): > 100 µg/mL
Structure (SMILES): CCCCCCCCCCC[C@@]1(O)C[N+](C)(C)C[C@@H](CC(=O)[O-])O1
Activity [2]: 2.7
Activity [4]: 4.7
Activity [11]: inactive
Activity [5]: 2
minimal effective concentration (Homo sapiens [12]): 1400 µg/mL
Activity [6]: 0.8
Activity [13]: inactive

MIC (Candida albicans): > 100 µg/mL
Structure (SMILES): CCCCCCCCCC[C@@]1(O)C[N+](C)(C)C[C@@H](CC(=O)[O-])O1
Activity [2]: 2.8
minimal effective concentration (Homo sapiens [14]): 2300 µg/mL
Activity [4]: > 4
Activity [11]: inactive
Activity [5]: 1
Activity [6]: 0.8
Activity [13]: inactive
